# From ChEMBL document CHEMBL4387741, “Optimization of novel reversible Bruton's tyrosine kinase inhibitors identified using Tethering-fragment-based screens” (Bioorg Med Chem, 2019)
# Legend:
# [1] = tested on: Tyrosine-protein kinase ABL1 (Homo sapiens), P00519 [F317L]; assay: Inhibition of human non-phosphorylated ABL1 F317L mutant (S229 to K512 residues) expressed in mammalian expression system at 1 uM by Kinomescan method relative to control
# [2] = tested on: Tyrosine-protein kinase ABL1 (Homo sapiens), P00519 [Y253F]; assay: Inhibition of human phosphorylated ABL1 Y253F mutant (S229 to K512 residues) expressed in mammalian expression system at 1 uM by Kinomescan method relative to control
# [3] = molecular target: Dual specificity protein kinase CLK2 (Homo sapiens) (UniProt P49760); assay: Inhibition of wild-type human partial length CLK2 (D144 to R498 residues) expressed in bacterial expression system at 1 uM by Kinomescan method relative to control
# [4] = tested on: Epidermal growth factor receptor (Homo sapiens), P00533 [G719S]; assay: Inhibition of human partial length EGFR G719S mutant (R669 to V1011 residues) expressed in bacterial expression system at 1 uM by Kinomescan method relative to control
# [5] = molecular target: Serine/threonine-protein kinase LATS1 (Homo sapiens) (UniProt O95835); assay: Inhibition of wild-type human partial length LATS1 (Q678 to V1130 residues) expressed in bacterial expression system at 1 uM by Kinomescan method relative to control
# [6] = molecular target: Serine/threonine-protein kinase STK11 (Homo sapiens) (UniProt Q15831); assay: Inhibition of wild-type human full length LKB1 (M1 to Q433 residues) expressed in bacterial expression system at 1 uM by Kinomescan method relative to control
# [7] = molecular target: Serine/threonine-protein kinase 10 (Homo sapiens) (UniProt O94804); assay: Inhibition of wild-type human partial length LOK (E16 to V314 residues) expressed in bacterial expression system at 1 uM by Kinomescan method relative to control
# [8] = molecular target: Mitogen-activated protein kinase kinase kinase 13 (Homo sapiens) (UniProt O43283); assay: Inhibition of wild-type human full length LZK (M1 to W966 residues) expressed in mammalian expression system at 1 uM by Kinomescan method relative to control
# [9] = molecular target: MAP kinase-activated protein kinase 5 (Homo sapiens) (UniProt Q8IW41); assay: Inhibition of wild-type human partial length MAPKAPK5 (M1 to D322 residues) expressed in mammalian expression system at 1 uM by Kinomescan method relative to control
# [10] = molecular target: Serine/threonine-protein kinase 38-like (Homo sapiens) (UniProt Q9Y2H1); assay: Inhibition of wild-type human partial length NDR2 (N34 to E447 residues) expressed in bacterial expression system at 1 uM by Kinomescan method relative to control
# [11] = molecular target: Cyclin-dependent kinase 17 (Homo sapiens) (UniProt Q00537); assay: Inhibition of wild-type human full length PCTK2 (M1 to F523 residues) expressed in bacterial expression system at 1 uM by Kinomescan method relative to control
# [12] = molecular target: Phosphatidylinositol 5-phosphate 4-kinase type-2 gamma (Homo sapiens) (UniProt Q8TBX8); assay: Inhibition of wild-type human partial length PIP5K2C (M1 to A421 residues) expressed in mammalian expression system at 1 uM by Kinomescan method relative to control
# [13] = molecular target: Serine/threonine-protein kinase D2 (Homo sapiens) (UniProt Q9BZL6); assay: Inhibition of wild-type human partial length PRKD2 (A519 to E838 residues) expressed in bacterial expression system at 1 uM by Kinomescan method relative to control
# [14] = molecular target: Serine/threonine-protein kinase SBK1 (Homo sapiens) (UniProt Q52WX2); assay: Inhibition of wild-type human partial length SBK1 (P23 to P348 residues) expressed in mammalian expression system at 1 uM by Kinomescan method relative to control
# [15] = molecular target: NT-3 growth factor receptor (Homo sapiens) (UniProt Q16288); assay: Inhibition of wild-type human partial length TRKC (Q531 to G825 residues) expressed in mammalian expression system at 1 uM by Kinomescan method relative to control
# [16] = molecular target: Transient receptor potential cation channel subfamily M member 6 (Homo sapiens) (UniProt Q9BX84); assay: Inhibition of wild-type human partial length TRPM6 (Q1723 to I1998 residues) expressed in mammalian expression system at 1 uM by Kinomescan method relative to control
# [17] = molecular target: Serine/threonine-protein kinase WNK1 (Homo sapiens) (UniProt Q9H4A3); assay: Inhibition of wild-type human partial length WNK1 (Q194 to A490 residues) expressed in mammalian expression system at 1 uM by Kinomescan method relative to control
# [18] = molecular target: Atypical kinase COQ8B, mitochondrial (Homo sapiens) (UniProt Q96D53); assay: Inhibition of wild-type human full length ADCK4 (M1 to S544 residues) expressed in bacterial expression system at 10 uM by Kinomescan method relative to control
# [19] = molecular target: Aurora kinase A (Homo sapiens) (UniProt O14965); assay: Inhibition of wild-type human partial length AURKA (E122 to K401 residues) expressed in mammalian expression system at 10 uM by Kinomescan method relative to control
# [20] = molecular target: Calcium/calmodulin-dependent protein kinase type 1B (Homo sapiens) (UniProt Q6P2M8); assay: Inhibition of wild-type human partial length CAMK1B (W9 to A311 residues) expressed in mammalian expression system at 10 uM by Kinomescan method relative to control
# [21] = molecular target: Mitogen-activated protein kinase 3 (Homo sapiens) (UniProt P27361); assay: Inhibition of wild-type human full length ERK1 (M1 to P379 residues) expressed in bacterial expression system at 10 uM by Kinomescan method relative to control
# [22] = molecular target: Glycogen synthase kinase-3 alpha (Homo sapiens) (UniProt P49840); assay: Inhibition of wild-type human full length GSK3A (M1 to S483 residues) expressed in bacterial expression system at 10 uM by Kinomescan method relative to control
# [23] = molecular target: Serine/threonine-protein kinase MARK2 (Homo sapiens) (UniProt Q7KZI7); assay: Inhibition of wild-type human partial length MARK2 (M1 to R450 residues) expressed in bacterial expression system at 10 uM by Kinomescan method relative to control
# [24] = molecular target: MAP/microtubule affinity-regulating kinase 4 (Homo sapiens) (UniProt Q96L34); assay: Inhibition of wild-type human partial length MARK4 (K29 to G340 residues) expressed in bacterial expression system at 10 uM by Kinomescan method relative to control
# [25] = molecular target: Platelet-derived growth factor receptor alpha (Homo sapiens) (UniProt P16234); assay: Inhibition of wild-type human partial length PDGFRA (V575 to D1002 residues) expressed in mammalian expression system at 10 uM by Kinomescan method relative to control
# [26] = molecular target: Ribosomal protein S6 kinase beta-1 (Homo sapiens) (UniProt P23443); assay: Inhibition of wild-type human partial length S6K1 (M1 to S421 residues) expressed in mammalian expression system at 10 uM by Kinomescan method relative to control
# [27] = molecular target: SNF-related serine/threonine-protein kinase (Homo sapiens) (UniProt Q9NRH2); assay: Inhibition of wild-type human partial length SNRK (M1 to E339 residues) expressed in mammalian expression system at 10 uM by Kinomescan method relative to control
# SNF-related serine/threonine-protein kinase (Homo sapiens), sequence (Q9NRH2 whole entry, the tested form may be a part): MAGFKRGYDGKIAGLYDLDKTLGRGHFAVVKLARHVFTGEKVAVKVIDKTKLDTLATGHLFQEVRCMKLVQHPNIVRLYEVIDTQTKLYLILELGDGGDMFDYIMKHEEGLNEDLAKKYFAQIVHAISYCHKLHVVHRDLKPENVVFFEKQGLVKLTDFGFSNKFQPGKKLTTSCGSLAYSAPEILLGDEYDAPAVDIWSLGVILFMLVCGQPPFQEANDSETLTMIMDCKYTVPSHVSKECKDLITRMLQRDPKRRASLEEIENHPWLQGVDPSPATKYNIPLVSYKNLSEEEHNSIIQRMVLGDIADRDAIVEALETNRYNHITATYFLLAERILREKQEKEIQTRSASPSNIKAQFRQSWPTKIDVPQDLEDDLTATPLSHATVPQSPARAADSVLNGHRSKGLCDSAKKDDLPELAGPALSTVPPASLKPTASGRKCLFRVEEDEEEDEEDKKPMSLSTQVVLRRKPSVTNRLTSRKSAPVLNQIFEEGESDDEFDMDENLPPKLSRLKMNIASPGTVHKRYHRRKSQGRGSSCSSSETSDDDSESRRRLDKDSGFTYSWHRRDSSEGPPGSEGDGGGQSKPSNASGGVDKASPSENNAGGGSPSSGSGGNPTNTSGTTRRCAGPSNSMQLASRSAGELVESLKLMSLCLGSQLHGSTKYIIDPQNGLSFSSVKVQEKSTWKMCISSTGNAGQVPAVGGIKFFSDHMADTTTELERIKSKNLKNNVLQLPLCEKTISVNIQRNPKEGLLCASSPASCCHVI
# Mitogen-activated protein kinase 3 (Homo sapiens), sequence (P27361 whole entry, the tested form may be a part): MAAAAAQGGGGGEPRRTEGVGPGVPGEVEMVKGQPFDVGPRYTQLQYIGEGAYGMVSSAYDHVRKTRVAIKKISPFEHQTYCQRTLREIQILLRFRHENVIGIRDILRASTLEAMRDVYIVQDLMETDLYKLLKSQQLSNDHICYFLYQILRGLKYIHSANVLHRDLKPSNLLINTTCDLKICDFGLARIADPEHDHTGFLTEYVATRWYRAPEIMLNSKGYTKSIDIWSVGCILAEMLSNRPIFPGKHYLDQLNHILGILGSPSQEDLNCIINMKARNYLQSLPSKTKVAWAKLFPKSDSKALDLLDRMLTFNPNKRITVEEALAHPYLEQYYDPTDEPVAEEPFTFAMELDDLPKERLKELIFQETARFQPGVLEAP
# Serine/threonine-protein kinase STK11 (Homo sapiens), sequence (Q15831 whole entry, the tested form may be a part): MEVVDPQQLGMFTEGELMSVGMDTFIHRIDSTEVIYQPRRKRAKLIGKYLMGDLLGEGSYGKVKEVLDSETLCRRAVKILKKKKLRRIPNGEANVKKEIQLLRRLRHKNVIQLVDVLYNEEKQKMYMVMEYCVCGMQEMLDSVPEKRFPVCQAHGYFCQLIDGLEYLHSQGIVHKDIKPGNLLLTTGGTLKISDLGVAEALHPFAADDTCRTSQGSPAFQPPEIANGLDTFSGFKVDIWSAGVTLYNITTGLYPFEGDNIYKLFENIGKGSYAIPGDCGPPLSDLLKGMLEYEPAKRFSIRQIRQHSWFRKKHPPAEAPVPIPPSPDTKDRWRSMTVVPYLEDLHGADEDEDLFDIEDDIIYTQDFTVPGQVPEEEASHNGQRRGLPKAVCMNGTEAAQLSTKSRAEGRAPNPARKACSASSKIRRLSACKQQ
# Glycogen synthase kinase-3 alpha (Homo sapiens), sequence (P49840 2-483 limits assumed): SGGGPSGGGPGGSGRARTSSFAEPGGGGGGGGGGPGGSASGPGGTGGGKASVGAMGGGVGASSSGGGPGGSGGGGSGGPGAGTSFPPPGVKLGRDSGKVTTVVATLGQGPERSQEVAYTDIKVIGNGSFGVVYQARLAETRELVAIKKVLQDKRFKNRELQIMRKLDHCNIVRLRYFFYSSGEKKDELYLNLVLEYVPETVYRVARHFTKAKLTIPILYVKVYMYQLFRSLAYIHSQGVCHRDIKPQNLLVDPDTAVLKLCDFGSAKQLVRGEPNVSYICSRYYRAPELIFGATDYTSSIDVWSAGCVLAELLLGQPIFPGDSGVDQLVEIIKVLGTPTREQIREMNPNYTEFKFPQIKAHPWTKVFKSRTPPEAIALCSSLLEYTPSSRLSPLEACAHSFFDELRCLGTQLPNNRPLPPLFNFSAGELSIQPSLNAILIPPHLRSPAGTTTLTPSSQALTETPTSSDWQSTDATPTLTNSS
# Ribosomal protein S6 kinase beta-1 (Homo sapiens), sequence (P23443 whole entry, looked up, the tested form may be a part): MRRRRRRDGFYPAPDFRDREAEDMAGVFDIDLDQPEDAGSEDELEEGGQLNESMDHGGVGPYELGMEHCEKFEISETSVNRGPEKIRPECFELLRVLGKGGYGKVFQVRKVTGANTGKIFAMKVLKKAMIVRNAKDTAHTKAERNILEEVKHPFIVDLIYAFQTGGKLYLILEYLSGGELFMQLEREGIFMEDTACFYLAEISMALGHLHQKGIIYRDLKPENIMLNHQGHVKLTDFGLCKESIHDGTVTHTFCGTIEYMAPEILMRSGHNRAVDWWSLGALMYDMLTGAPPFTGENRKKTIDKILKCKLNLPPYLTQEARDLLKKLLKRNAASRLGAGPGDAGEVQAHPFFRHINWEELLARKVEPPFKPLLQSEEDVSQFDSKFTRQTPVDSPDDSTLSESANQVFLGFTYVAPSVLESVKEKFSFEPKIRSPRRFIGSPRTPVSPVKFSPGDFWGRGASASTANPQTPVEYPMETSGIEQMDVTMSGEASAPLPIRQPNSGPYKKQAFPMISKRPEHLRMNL
# Cyclin-dependent kinase 17 (Homo sapiens), sequence (Q00537 whole entry, looked up, the tested form may be a part): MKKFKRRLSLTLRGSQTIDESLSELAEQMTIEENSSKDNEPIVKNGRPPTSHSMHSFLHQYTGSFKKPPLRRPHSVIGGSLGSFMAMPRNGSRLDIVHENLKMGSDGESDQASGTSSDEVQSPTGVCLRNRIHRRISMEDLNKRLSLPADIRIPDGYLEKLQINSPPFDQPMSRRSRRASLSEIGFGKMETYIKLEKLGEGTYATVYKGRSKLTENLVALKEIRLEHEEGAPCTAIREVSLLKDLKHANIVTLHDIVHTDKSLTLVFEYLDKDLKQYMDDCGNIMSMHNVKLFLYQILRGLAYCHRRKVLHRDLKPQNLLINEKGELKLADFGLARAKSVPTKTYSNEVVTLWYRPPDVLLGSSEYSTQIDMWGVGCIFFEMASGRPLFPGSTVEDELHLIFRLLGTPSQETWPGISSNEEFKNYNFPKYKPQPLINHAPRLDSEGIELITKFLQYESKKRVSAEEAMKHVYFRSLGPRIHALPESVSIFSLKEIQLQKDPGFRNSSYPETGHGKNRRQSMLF
# Aurora kinase A (Homo sapiens), sequence (O14965 whole entry, the tested form may be a part): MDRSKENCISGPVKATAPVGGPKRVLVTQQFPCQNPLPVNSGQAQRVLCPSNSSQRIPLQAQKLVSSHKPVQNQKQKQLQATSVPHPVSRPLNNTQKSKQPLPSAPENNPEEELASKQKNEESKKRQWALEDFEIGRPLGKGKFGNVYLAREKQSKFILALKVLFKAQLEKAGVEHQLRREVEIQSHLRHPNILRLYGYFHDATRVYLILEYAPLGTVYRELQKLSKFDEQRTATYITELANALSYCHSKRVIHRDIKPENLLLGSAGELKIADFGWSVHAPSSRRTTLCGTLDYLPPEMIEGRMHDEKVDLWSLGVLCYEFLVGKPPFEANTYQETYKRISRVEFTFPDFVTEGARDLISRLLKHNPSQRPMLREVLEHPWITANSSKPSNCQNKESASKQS
# Serine/threonine-protein kinase 38-like (Homo sapiens), sequence (Q9Y2H1 2-464 limits assumed): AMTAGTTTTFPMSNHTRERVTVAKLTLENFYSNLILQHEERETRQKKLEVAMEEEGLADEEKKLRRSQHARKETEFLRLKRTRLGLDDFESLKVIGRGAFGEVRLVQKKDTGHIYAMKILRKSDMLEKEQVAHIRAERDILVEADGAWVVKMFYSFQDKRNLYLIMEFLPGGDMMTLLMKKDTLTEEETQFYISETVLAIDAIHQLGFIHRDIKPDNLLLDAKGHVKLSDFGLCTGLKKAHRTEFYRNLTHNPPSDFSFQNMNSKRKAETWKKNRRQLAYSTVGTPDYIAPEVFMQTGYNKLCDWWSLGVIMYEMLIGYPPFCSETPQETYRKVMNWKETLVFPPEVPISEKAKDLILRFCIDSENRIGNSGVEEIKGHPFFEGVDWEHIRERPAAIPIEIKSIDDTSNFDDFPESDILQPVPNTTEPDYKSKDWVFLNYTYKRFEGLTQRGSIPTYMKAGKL
# Serine/threonine-protein kinase 10 (Homo sapiens), sequence (O94804 whole entry, looked up, the tested form may be a part): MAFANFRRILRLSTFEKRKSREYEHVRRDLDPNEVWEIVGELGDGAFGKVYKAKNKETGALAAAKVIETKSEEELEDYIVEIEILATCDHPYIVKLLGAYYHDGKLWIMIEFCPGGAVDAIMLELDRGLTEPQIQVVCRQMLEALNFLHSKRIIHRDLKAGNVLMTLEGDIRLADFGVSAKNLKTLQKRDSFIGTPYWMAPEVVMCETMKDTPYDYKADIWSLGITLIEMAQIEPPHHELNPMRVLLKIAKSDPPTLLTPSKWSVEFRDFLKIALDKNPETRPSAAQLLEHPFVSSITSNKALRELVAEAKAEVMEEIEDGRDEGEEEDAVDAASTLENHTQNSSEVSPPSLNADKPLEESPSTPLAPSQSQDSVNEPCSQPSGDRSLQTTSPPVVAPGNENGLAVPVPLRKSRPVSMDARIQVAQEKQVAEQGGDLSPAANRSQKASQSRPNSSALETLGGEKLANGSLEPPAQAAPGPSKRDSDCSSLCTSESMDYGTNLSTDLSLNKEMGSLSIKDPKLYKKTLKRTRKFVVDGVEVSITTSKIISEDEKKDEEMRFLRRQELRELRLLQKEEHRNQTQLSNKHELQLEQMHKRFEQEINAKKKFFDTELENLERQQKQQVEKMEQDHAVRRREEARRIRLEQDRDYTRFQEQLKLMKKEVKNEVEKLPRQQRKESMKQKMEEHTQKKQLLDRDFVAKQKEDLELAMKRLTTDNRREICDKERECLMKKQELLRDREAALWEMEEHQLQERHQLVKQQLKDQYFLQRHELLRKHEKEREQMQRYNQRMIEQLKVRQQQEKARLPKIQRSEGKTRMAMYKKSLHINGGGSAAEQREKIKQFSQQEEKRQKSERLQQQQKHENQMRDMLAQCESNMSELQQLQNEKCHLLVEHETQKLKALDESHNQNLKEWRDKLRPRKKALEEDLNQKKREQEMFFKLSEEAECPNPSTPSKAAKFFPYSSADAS
compound,measurement,setting,value
O=C(Nc1cccc([C@@H]2CN(c3ncnc4[nH]ccc34)CCN2CCO)c1)Nc1c(F)cccc1N1CCCC1,inhibition,[1],100%
same,inhibition,[2],100%
same,inhibition,[3],86%
same,inhibition,[4],90%
same,inhibition,[5],52%
same,inhibition,[6],87%
same,inhibition,[7],11%
same,inhibition,[8],100%
same,inhibition,[9],100%
same,inhibition,[10],100%
same,inhibition,[11],100%
same,inhibition,[12],83%
same,inhibition,[13],98%
same,inhibition,[14],69%
same,inhibition,[15],99%
same,inhibition,[16],65%
same,inhibition,[17],74%
O=C(Nc1cccc([C@H]2CCCN(c3ncnc4[nH]ccc34)C2)c1)Nc1ccccc1N1CCCC1,inhibition,[18],100%
same,inhibition,[19],0.8%
same,inhibition,[20],46%
same,inhibition,[21],100%
same,inhibition,[22],100%
same,inhibition,[23],41%
same,inhibition,[24],87%
same,inhibition,[25],0.6%
same,inhibition,[26],23%
same,inhibition,[27],86%
